PubChem BioAssay (NCI)
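The compound was tested at five concentrations on cells cultured in 96-well plates, with a 48-hour exposure period. TGI is the concentration that stops growth completely.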

Legend:
Test in all cases: NCI anticancer screen, dose series, 48 h
CAKI-1 renal = test system: CAKI-1 renal
COLO 205 colon = test system: COLO 205 colon
HCT-15 colon = test system: HCT-15 colon
KM12 colon = test system: KM12 colon
MDA-MB-231 breast = test system: MDA-MB-231 breast
MDA-N = test system: MDA-N
OVCAR-8 ovarian = test system: OVCAR-8 ovarian
SK-MEL-28 melanoma = test system: SK-MEL-28 melanoma
SW-620 colon = test system: SW-620 colon
U251 CNS = test system: U251 CNS

In the case of `O=C1OI(C#Cc2ccccc2)c2ccccc21`, the TGI (CAKI-1 renal) is reported as 6.5 µM, the TGI (COLO 205 colon) is reported as 9.11 µM and the TGI (HCT-15 colon) is reported as 11.2 µM. For the same compound, the TGI (KM12 colon) was 9.31 µM, the TGI (MDA-MB-231 breast) was over 55.3 µM and the TGI (MDA-N) was 30.6 µM. It also gave a TGI (OVCAR-8 ovarian) of 36.4 µM, a TGI (SK-MEL-28 melanoma) of 21.2 µM and a TGI (SW-620 colon) of 5.14 µM. For the same compound, the TGI (U251 CNS) was 6.13 µM.

Compound `CC1=C2C(=O)c3ccccc3C(=O)[C@H]2C[C@@H](N2CCCCCC2=O)O1` has a TGI (CAKI-1 renal) of 35.5 µM, a TGI (COLO 205 colon) of 32.2 µM and a TGI (HCT-15 colon) of 47.5 µM. The TGI (KM12 colon) was 30.7 µM, the TGI (MDA-MB-231 breast) was 53.5 µM and the TGI (MDA-N) was 29.4 µM. It also gave a TGI (OVCAR-8 ovarian) of 40.3 µM, a TGI (SK-MEL-28 melanoma) of 35.7 µM and a TGI (SW-620 colon) of 33.1 µM. It also gave a TGI (U251 CNS) of 50.6 µM.

In the case of `c1ccc([P+](c2ccccc2)(c2ccccc2)c2ccc([P+](c3ccccc3)(c3ccccc3)c3ccccc3)cc2)cc1`, the TGI (CAKI-1 renal) is reported as over 100 µM, the TGI (COLO 205 colon) is reported as 50.8 µM and the TGI (HCT-15 colon) is reported as over 100 µM. For the same compound, the TGI (KM12 colon) was over 100 µM, the TGI (MDA-MB-231 breast) was over 100 µM and the TGI (MDA-N) was over 100 µM. The TGI (OVCAR-8 ovarian) was over 100 µM, the TGI (SK-MEL-28 melanoma) was over 100 µM and the TGI (SW-620 colon) was over 100 µM. It also gave a TGI (U251 CNS) of over 100 µM.

Work on `COc1cccc(CN(C(=O)/C=C\Sc2ccccc2)C(C)(C)C)c1` yielded a TGI (CAKI-1 renal) of over 100 µM, a TGI (COLO 205 colon) of over 100 µM and a TGI (HCT-15 colon) of over 100 µM. It also gave a TGI (KM12 colon) of over 100 µM, a TGI (MDA-MB-231 breast) of over 100 µM and a TGI (MDA-N) of over 100 µM. It also gave a TGI (OVCAR-8 ovarian) of over 100 µM, a TGI (SK-MEL-28 melanoma) of over 100 µM and a TGI (SW-620 colon) of over 100 µM. It also gave a TGI (U251 CNS) of over 100 µM.

Work on `O=C1CSc2nnc(CCCCCCCCc3nnc4n3NC(=O)CS4)n2N1` yielded a TGI (CAKI-1 renal) of over 100 µM, a TGI (COLO 205 colon) of over 100 µM and a TGI (HCT-15 colon) of over 100 µM. It also gave a TGI (KM12 colon) of over 100 µM, a TGI (MDA-MB-231 breast) of over 100 µM and a TGI (MDA-N) of over 100 µM. For the same compound, the TGI (OVCAR-8 ovarian) was over 100 µM, the TGI (SK-MEL-28 melanoma) was over 100 µM and the TGI (SW-620 colon) was over 100 µM. The TGI (U251 CNS) was over 100 µM.

With `CC(C)(C)OC(=O)N1CCc2c(n(C/C=C/c3ccccc3)[nH]c2=O)C1` the TGI (CAKI-1 renal) was over 100 µM, the TGI (COLO 205 colon) was over 100 µM and the TGI (HCT-15 colon) was over 100 µM. The TGI (KM12 colon) was over 100 µM, the TGI (MDA-MB-231 breast) was over 100 µM and the TGI (MDA-N) was over 100 µM. For the same compound, the TGI (OVCAR-8 ovarian) was over 100 µM, the TGI (SK-MEL-28 melanoma) was over 100 µM and the TGI (SW-620 colon) was over 100 µM. The TGI (U251 CNS) was over 100 µM.

`NC(=O)C1=CC2C3C=CC2(O)C(=O)OC3O1` (stereo not given) gave a TGI (CAKI-1 renal) of 17 µM, a TGI (COLO 205 colon) of 16.1 µM and a TGI (HCT-15 colon) of 13.9 µM. It also gave a TGI (KM12 colon) of 11.4 µM, a TGI (MDA-MB-231 breast) of 32 µM and a TGI (MDA-N) of 6.97 µM. It also gave a TGI (OVCAR-8 ovarian) of 6.66 µM, a TGI (SK-MEL-28 melanoma) of 8.48 µM and a TGI (SW-620 colon) of 28.6 µM. It also gave a TGI (U251 CNS) of 40.5 µM.

Work on `COC1=CC(=O)C2=C(C1=O)[C@H]1CC[C@]3(C)[C@@H](OC(C)=O)CC[C@H]3[C@@H]1CC2` yielded a TGI (CAKI-1 renal) of over 100 µM, a TGI (COLO 205 colon) of over 100 µM and a TGI (HCT-15 colon) of over 100 µM. The TGI (KM12 colon) was over 100 µM, the TGI (MDA-MB-231 breast) was 35.3 µM and the TGI (MDA-N) was over 100 µM. For the same compound, the TGI (OVCAR-8 ovarian) was 53.9 µM, the TGI (SK-MEL-28 melanoma) was over 100 µM and the TGI (SW-620 colon) was over 100 µM. For the same compound, the TGI (U251 CNS) was over 100 µM.

For `O=P(O)(O)CN1CCNCCN(CP(=O)(O)O)CCNCC1`, the TGI (CAKI-1 renal) was over 100 µM, the TGI (COLO 205 colon) was over 100 µM and the TGI (HCT-15 colon) was over 100 µM. The TGI (KM12 colon) was over 100 µM, the TGI (MDA-MB-231 breast) was over 100 µM and the TGI (MDA-N) was over 100 µM. It also gave a TGI (OVCAR-8 ovarian) of over 83.6 µM, a TGI (SK-MEL-28 melanoma) of over 100 µM and a TGI (SW-620 colon) of over 100 µM. It also gave a TGI (U251 CNS) of over 100 µM.

With `CC(C)CCCC(C)[C@H]1CC[C@H]2N=C(Nc3ccccc3)CCC[C@]12C` (stereo not given in full) the TGI (CAKI-1 renal) was 7.07 µM, the TGI (COLO 205 colon) was 2.67 µM and the TGI (HCT-15 colon) was 4.68 µM. For the same compound, the TGI (KM12 colon) was over 100 µM, the TGI (MDA-MB-231 breast) was 3.04 µM and the TGI (MDA-N) was 10.9 µM. For the same compound, the TGI (OVCAR-8 ovarian) was 3.66 µM, the TGI (SK-MEL-28 melanoma) was 3.89 µM and the TGI (SW-620 colon) was over 100 µM. The TGI (U251 CNS) was 4.33 µM.

`O=c1oc2ccc(Cl)cc2cc1-c1cn2ccsc2n1` showed a TGI (CAKI-1 renal) of over 100 µM, a TGI (COLO 205 colon) of 93.6 µM and a TGI (HCT-15 colon) of over 100 µM. It also gave a TGI (KM12 colon) of over 100 µM, a TGI (MDA-MB-231 breast) of over 100 µM and a TGI (MDA-N) of over 100 µM. For the same compound, the TGI (OVCAR-8 ovarian) was 96.8 µM, the TGI (SK-MEL-28 melanoma) was over 100 µM and the TGI (SW-620 colon) was over 100 µM. It also gave a TGI (U251 CNS) of over 100 µM.

For `Cc1c2cccc-2ccc2c1[nH]c1ccccc12`, the TGI (CAKI-1 renal) was 19.3 µM, the TGI (COLO 205 colon) was 3.68 µM and the TGI (HCT-15 colon) was 9.01 µM. It also gave a TGI (KM12 colon) of 5.57 µM, a TGI (MDA-MB-231 breast) of 3.48 µM and a TGI (MDA-N) of 4.15 µM. The TGI (OVCAR-8 ovarian) was 7.07 µM, the TGI (SK-MEL-28 melanoma) was 3.67 µM and the TGI (SW-620 colon) was 7.68 µM. The TGI (U251 CNS) was 3.17 µM.

Work on `Cc1ccc(S(=O)(=O)N/N=C2\C3CC4CC(C3)C2C4)cc1` (stereo not given) yielded a TGI (CAKI-1 renal) of over 100 µM, a TGI (COLO 205 colon) of over 100 µM and a TGI (HCT-15 colon) of over 100 µM. The TGI (KM12 colon) was over 100 µM, the TGI (MDA-MB-231 breast) was over 100 µM and the TGI (MDA-N) was over 100 µM. The TGI (OVCAR-8 ovarian) was over 100 µM, the TGI (SK-MEL-28 melanoma) was over 100 µM and the TGI (SW-620 colon) was over 100 µM. The TGI (U251 CNS) was over 100 µM.

Work on `NS(=O)(=O)c1cc(S(N)(=O)=O)c(NC(=O)N(c2ccccc2)c2ccccc2)c(Cl)c1Cl` yielded a TGI (CAKI-1 renal) of 65.2 µM, a TGI (COLO 205 colon) of 42.2 µM and a TGI (HCT-15 colon) of over 100 µM. For the same compound, the TGI (KM12 colon) was 57.1 µM, the TGI (MDA-MB-231 breast) was over 100 µM and the TGI (MDA-N) was 88.5 µM. The TGI (OVCAR-8 ovarian) was 34.2 µM, the TGI (SK-MEL-28 melanoma) was over 100 µM and the TGI (SW-620 colon) was over 100 µM. The TGI (U251 CNS) was over 100 µM.

With `Cn1c(=O)sc2cc(C(=S)N3CCOCC3)ccc21` the TGI (CAKI-1 renal) was over 100 µM, the TGI (COLO 205 colon) was over 100 µM and the TGI (HCT-15 colon) was over 100 µM. The TGI (KM12 colon) was over 100 µM, the TGI (MDA-MB-231 breast) was over 100 µM and the TGI (MDA-N) was over 100 µM. For the same compound, the TGI (OVCAR-8 ovarian) was over 100 µM, the TGI (SK-MEL-28 melanoma) was over 100 µM and the TGI (SW-620 colon) was over 100 µM. For the same compound, the TGI (U251 CNS) was over 100 µM.

In the case of `COC(=O)C(NC(=O)CSc1nnc(COc2ccc(Cl)cc2)n1-c1ccccc1)C(C)C` (stereo not given), the TGI (CAKI-1 renal) is reported as 25.1 µM, the TGI (COLO 205 colon) is reported as 48.6 µM and the TGI (HCT-15 colon) is reported as over 100 µM. It also gave a TGI (KM12 colon) of 38.5 µM, a TGI (MDA-MB-231 breast) of 35.1 µM and a TGI (MDA-N) of 32.1 µM. The TGI (OVCAR-8 ovarian) was 64.7 µM, the TGI (SK-MEL-28 melanoma) was 51.6 µM and the TGI (SW-620 colon) was over 100 µM. The TGI (U251 CNS) was over 100 µM.

With `O=[N+]([O-])c1ccc(NS(=O)(=O)C(F)(F)F)cc1` the TGI (CAKI-1 renal) was over 100 µM, the TGI (COLO 205 colon) was over 100 µM and the TGI (HCT-15 colon) was over 100 µM. The TGI (KM12 colon) was over 100 µM, the TGI (MDA-MB-231 breast) was over 100 µM and the TGI (MDA-N) was over 100 µM. The TGI (OVCAR-8 ovarian) was over 100 µM, the TGI (SK-MEL-28 melanoma) was over 100 µM and the TGI (SW-620 colon) was over 100 µM. The TGI (U251 CNS) was over 100 µM.

Work on `O=C(/C=C/c1ccco1)c1cccc(C(=O)/C=C/c2ccco2)n1` yielded a TGI (CAKI-1 renal) of over 100 µM, a TGI (COLO 205 colon) of over 67.4 µM and a TGI (HCT-15 colon) of 28.1 µM. It also gave a TGI (KM12 colon) of over 55.8 µM, a TGI (MDA-MB-231 breast) of over 100 µM and a TGI (MDA-N) of over 100 µM. The TGI (OVCAR-8 ovarian) was 8.83 µM, the TGI (SK-MEL-28 melanoma) was 67.7 µM and the TGI (SW-620 colon) was 10.4 µM. For the same compound, the TGI (U251 CNS) was 22.6 µM.
